Measured values taken from BindingDB's records for doi:10.1038/nchembio.137 (University of Texas Southwestern Medical Center, 2009).

Molecular target: T1, Protein Wnt-2 (Mus musculus, UniProt P21552)
T1 sequence (P21552 whole entry): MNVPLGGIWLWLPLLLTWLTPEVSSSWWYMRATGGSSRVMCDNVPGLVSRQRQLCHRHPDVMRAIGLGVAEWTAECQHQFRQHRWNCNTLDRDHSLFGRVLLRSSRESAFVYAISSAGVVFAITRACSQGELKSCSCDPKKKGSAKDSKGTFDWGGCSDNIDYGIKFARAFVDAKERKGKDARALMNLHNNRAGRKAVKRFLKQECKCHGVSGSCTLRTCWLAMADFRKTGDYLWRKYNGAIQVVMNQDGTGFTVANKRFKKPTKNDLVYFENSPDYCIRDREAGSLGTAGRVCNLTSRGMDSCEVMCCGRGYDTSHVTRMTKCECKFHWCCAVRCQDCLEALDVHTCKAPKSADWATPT
Experiment: Wnt Inhibition Assay
Conditions: pH 7.4; 4 °C
From the text: Inhibition assay of Wnt response treated with exogenously supplied of Wnt protein ('exogenous Wnt' test)

| IC50 [nM] | Structure (SMILES) |
| --- | --- |
| 58 | O=C(Nc1cccc2cccnc12)c1ccc(-n2c(O)c3c(c2O)[C@H]2C=C[C@@H]3C2)cc1 |
| 25 | N#Cc1ccccc1Cn1c(=O)n(C[C@H]2CC[C@H](C(=O)NCc3ccccc3)CC2)c(=O)c2ccccc21 [CID15993586] |
| 40 | Cc1cccc2nc(Cn3c(=O)n(C[C@H]4CC[C@H](C(=O)NCc5ccccc5)CC4)c(=O)c4ccccc43)cc(=O)n12 [CID15995771] |
| 27 | Cc1ccnc2c(NC(=O)c3ccc(-n4c(O)c5c(c4O)[C@H]4C=C[C@@H]5C4)cc3)cccc12 [CID25093486] |
